Experimental data: ChEMBL document CHEMBL1146259, “Structure-activity relationships of the ultrapotent vanilloid resiniferatoxin (RTX): the homovanillyl moiety” (Bioorg Med Chem Lett, 2007)

The compounds below were run against Transient receptor potential cation channel subfamily V member 1 (Homo sapiens, UniProt Q8NER1) (assay: Agonist activity at human recombinant TRPV1 expressed in human HEK293 cells).
Format: functional, cell-based

Chain of Transient receptor potential cation channel subfamily V member 1 (Q8NER1 whole entry): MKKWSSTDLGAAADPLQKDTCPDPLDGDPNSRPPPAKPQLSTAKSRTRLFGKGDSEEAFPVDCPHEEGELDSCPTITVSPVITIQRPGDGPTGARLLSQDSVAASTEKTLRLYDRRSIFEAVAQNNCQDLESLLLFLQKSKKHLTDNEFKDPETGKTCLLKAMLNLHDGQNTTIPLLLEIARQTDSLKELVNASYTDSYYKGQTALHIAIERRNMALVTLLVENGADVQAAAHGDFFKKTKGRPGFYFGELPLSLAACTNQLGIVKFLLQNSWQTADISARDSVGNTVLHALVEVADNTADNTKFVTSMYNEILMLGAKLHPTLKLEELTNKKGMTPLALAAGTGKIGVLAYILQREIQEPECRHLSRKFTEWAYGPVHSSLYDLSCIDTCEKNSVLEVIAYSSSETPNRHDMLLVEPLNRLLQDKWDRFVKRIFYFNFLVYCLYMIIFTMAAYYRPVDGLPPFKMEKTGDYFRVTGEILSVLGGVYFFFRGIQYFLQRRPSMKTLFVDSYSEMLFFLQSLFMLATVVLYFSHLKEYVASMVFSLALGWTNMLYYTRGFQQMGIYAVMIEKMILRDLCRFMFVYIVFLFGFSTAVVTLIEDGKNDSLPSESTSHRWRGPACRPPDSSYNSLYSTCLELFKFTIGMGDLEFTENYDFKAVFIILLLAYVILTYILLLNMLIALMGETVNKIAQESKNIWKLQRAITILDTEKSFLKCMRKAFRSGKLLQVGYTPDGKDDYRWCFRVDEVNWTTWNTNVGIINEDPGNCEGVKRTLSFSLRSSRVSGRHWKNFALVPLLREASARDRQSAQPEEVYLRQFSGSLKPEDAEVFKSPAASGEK

`C=C(C)[C@]12C[C@@H](C)[C@@]3(OCc4ccccc4)[C@@H](C=C(COC(=O)CCc4cc(I)c(O)c(OC)c4)C[C@]4(O)C(=O)C(C)=C[C@@H]34)[C@H]1OCO2` and `C=C(C)[C@]12C[C@@H](C)[C@@]3(OCc4ccccc4)[C@@H](C=C(COC(=O)CCc4cc(OC)c(O)cc4I)C[C@]4(O)C(=O)C(C)=C[C@@H]34)[C@H]1OCO2` are within 1.5-fold of each other in EC50: 8.6 nM for the first, 7.9 nM for the second.

Going from `C=C(C)[C@]12C[C@@H](C)[C@@]3(OCc4ccccc4)[C@@H](C=C(COC(=O)/C=C/c4ccc(O)c(OC)c4)C[C@]4(O)C(=O)C(C)=C[C@@H]34)[C@H]1OCO2` to `C=C(C)[C@]12C[C@@H](C)[C@@]3(OCc4ccccc4)[C@@H](C=C(COC(=O)c4ccc(O)c(OC)c4)C[C@]4(O)C(=O)C(C)=C[C@@H]34)[C@H]1OCO2`, the EC50 rises from 1.5 nM to 9.4 nM (6.3-fold). The first is the more potent here.

Compared with `C=C(C)[C@]12C[C@@H](C)[C@@]3(OCc4ccccc4)[C@@H](C=C(COC(=O)CCc4ccccc4)C[C@]4(O)C(=O)C(C)=C[C@@H]34)[C@H]1OCO2`, `C=C(C)[C@]12C[C@@H](C)[C@@]3(OCc4ccccc4)[C@@H](C=C(COC(=O)Cc4ccccc4)C[C@]4(O)C(=O)C(C)=C[C@@H]34)[C@H]1OCO2` is 11-fold lower in EC50: 51.5 nM for the first, 4.7 nM for the second.

Compared with `C=C(C)[C@]12C[C@@H](C)[C@@]3(OCc4ccccc4)[C@@H](C=C(COC(=O)CCc4ccc(O)c(OC)c4)C[C@]4(O)C(=O)C(C)=C[C@@H]34)[C@H]1OCO2`, `C=C(C)[C@]12C[C@@H](C)[C@@]3(OCc4ccccc4)[C@@H](C=C(COC(=O)c4cc(OC)c(O)cc4I)C[C@]4(O)C(=O)C(C)=C[C@@H]34)[C@H]1OCO2` is 3.3-fold higher in EC50: 4.6 nM for the first, 15.2 nM for the second. The first is the more potent here.

First: C=C(C)[C@]12C[C@@H](C)[C@@]3(OCc4ccccc4)[C@@H](C=C(COC(=O)c4ccccc4)C[C@]4(O)C(=O)C(C)=C[C@@H]34)[C@H]1OCO2
Second: C=C(C)[C@]12C[C@@H](C)[C@@]3(OCc4ccccc4)[C@@H](C=C(COC(=O)/C=C/c4ccccc4)C[C@]4(O)C(=O)C(C)=C[C@@H]34)[C@H]1OCO2
The EC50 of the first is 2.7-fold lower: 25.5 nM for the first, 69.5 nM for the second.

First: C=C(C)[C@]12C[C@@H](C)[C@@]3(OCc4ccccc4)[C@@H](C=C(COC(=O)c4cc(I)c(O)c(OC)c4)C[C@]4(O)C(=O)C(C)=C[C@@H]34)[C@H]1OCO2
Second: C=C(C)[C@]12C[C@@H](C)[C@@]34O[C@](Cc5ccccc5)(O[C@@H]1[C@@H]3C=C(COC(=O)Cc1ccc(O)c(OC)c1)C[C@]1(O)C(=O)C(C)=C[C@@H]41)O2 [RESINIFERATOXIN]
The EC50 of the first is 100-fold higher: 1.9 nM for the first, 0.019 nM for the second.
